The values below come from US20050107475A1, “Methods of using farnesoid x receptor (frx) agonists” (priority 2002, published 2005).

Test [1] deals with human Fibroblast Growth Factor 19 (hFGF19). Put plainly: Differential expression of FGF19 in human hepatocytes treated with FXR agonists (transcript profiling). To be noted: vs DMSO control. It counts as cell-based.
Description: The present study utilized differential gene expression analysis as performed by CuraGen Corporation (New Haven, Conn.) using transcript profiling technology. […] In brief, RNA is extracted from samples and cDNA synthesis is carried out. The cDNAs are then digested with multiple pairs of different restriction enzymes (standard set of 96 different pairs of restriction enzymes with 6 base-pair recognition sites (subsequence pairs)), and the digested products are ligated to complementary adapters containing standardized PCR priming sequences. Multiple PCR cycles are carried out using one biotinylated adapter-specific primer and one fluorescently labeled adapter-specific primer. Following PCR amplification, the biotin-labeled DNA is purified on immobilized streptavidin. Denatured single stranded cDNA fragments are then sized using capillary electrophoresis, and the fluorescently labeled fragments are detected by laser excitation. Since the biotin label is needed for purification and the fluorescent label is needed for detection, all analyzed fragments result from restriction digestion with both enzymes.
Differentially expressed peaks are identified by comparing the composite traces of the experimental samples vs. the control samples using bioinformatics algorithms. […]
Test [2] concerns primary rat adipocytes. The note with it: added to cultures of primary rat adipocytes; cited from earlier work.
A further test relates to FvB mice. The note with it: 1 mg/kg/day, intravenously by osmotically driven implanted pump, vs carrier alone; cited from earlier work.
Test [3] concerns primary rat adipocytes. To be noted: added to cultures of primary rat adipocytes; cited from earlier work. This is another data set of the same source.

As to `CC(C)c1onc(-c2c(Cl)cccc2Cl)c1COc1ccc(/C=C/c2cccc(C(=O)O)c2)c(Cl)c1` [GW4064X], the “Increase in expression of hFGF19 compared to control cells” value in test [1] is on record as 36.4 fold.
Turning to “recombinant human FGF-19: recombinant human fibroblast growth factor 19 protein”, in the test on primary rat adipocytes [2], the “release of leptin from the cells” value is given as “increase the release of leptin”. Also, in the test on FvB mice, the food intake result is recorded as “increased food intake” and the oxygen consumption result was “increased oxygen consumption”. In addition, the uptake of glucose entry with primary rat adipocytes [3] is given as “decrease the uptake of glucose”.
